The values below are quoted from earlier work in PMC5698879 (Inorganic Chemistry, 2017).

Read-outs that look alike come from different tables or passages of the source.

The conditions of the data set: [Cu^2+]tot = [chelator]tot = 50 μM.

Regarding `O=C(O)CN(CCN(CC(=O)O)CC(=O)O)CCN(CC(=O)O)CC(=O)O` [DTPA, diethylenetriaminepentacetic acid], the “Calculated pCu (−log [Cu]free)” value runs as follows: (pH 6.6) 9.7; (pH 7.4) 10.7.
